Measurements published in US20250313575A1, “MACROCYCLES AS LRRK2 INHIBITORS, PHARMACEUTICAL COMPOSITIONS, AND USES THEREOF” (Merck Sharp & Dohme LLC, priority 2022, published 2025).

Each compound was assayed against GST-tagged truncated human mutant G2019S LRRK2 (Homo sapiens (Human), UniProt Q5S007, G2019S) (assay: LRRK2 G2019S Km ATP LanthaScreen assay). Conditions: G2019S LRRK2, 134 μM ATP (Km ATP), LRRKtide substrate.
Type: biochemical
Outline: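 Ten-point compound series (highest 9.99 μM in DMSO) preincubated 15 min with 1.25 nM GST-tagged truncated human LRRK2 G2019S, then 90 min reaction at ambient temperature with 134 μM ATP (Km) and fluorescein-labelled LRRKtide, pH 8.5. Phosphorylation read as 520/495 nm emission ratio via Tb-labelled antibody; IC50 from 4P logistic regression.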

Sequence of GST-tagged truncated human mutant G2019S LRRK2 (Q5S007 970-2527 G2019S): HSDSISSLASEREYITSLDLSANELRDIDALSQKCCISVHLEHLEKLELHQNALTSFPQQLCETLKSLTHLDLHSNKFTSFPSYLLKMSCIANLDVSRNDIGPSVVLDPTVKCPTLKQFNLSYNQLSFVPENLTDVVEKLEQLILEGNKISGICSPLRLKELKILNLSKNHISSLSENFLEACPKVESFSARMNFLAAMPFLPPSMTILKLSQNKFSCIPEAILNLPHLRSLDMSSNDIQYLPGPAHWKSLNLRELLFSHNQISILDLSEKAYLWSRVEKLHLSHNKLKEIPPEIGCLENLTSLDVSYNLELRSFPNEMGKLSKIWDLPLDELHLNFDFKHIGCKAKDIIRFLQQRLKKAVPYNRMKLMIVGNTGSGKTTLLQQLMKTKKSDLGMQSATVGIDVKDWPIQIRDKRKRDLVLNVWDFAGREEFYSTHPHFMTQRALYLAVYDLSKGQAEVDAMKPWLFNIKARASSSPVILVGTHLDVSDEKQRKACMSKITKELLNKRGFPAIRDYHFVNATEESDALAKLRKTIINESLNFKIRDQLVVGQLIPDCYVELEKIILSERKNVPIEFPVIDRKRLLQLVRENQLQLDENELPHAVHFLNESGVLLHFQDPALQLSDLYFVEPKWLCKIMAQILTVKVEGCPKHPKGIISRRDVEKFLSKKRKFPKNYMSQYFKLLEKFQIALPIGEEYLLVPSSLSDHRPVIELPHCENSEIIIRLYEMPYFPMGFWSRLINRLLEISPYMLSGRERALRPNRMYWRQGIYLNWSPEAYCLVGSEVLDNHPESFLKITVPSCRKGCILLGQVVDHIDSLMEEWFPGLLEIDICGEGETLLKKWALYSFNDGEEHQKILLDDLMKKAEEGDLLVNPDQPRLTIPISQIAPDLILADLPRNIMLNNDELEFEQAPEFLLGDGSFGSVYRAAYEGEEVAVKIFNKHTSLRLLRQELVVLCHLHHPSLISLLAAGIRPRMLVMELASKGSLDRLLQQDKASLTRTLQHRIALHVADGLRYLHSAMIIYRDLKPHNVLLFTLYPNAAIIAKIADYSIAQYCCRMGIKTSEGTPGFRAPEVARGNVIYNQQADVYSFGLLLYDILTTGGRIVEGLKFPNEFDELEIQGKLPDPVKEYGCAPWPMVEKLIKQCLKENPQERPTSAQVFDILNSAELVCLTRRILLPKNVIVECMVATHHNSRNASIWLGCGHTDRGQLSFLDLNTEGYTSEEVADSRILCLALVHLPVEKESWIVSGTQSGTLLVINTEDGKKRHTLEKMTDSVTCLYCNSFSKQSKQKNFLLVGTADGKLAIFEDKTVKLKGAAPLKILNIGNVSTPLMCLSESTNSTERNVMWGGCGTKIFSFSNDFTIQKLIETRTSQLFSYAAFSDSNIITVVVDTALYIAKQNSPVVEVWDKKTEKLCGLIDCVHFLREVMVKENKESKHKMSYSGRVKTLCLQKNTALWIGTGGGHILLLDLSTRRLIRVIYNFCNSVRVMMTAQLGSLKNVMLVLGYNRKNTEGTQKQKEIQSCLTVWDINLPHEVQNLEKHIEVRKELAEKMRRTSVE

| Compound | LRRK2 pIC50 |
| --- | --- |
| Cc1nn(C2CCC2)c2c1OC[C@H]1CC[C@H]1Nc1nc(ncc1C(F)(F)F)N2 (single isomer, unassigned) [Ex-2.22, (10aR,12aS)- or (10aS,12aR)-3-cyclobutyl-1-methyl-8-(trifluoromethyl)-3,4,10,10a,11,12,12a,13-octahydro-5,9-(azeno)cyclobuta[k]pyrazolo[4,3-b][1]oxa[4,6,10]triazacyclotridecine] | 5.76 |
| Cc1nn(C2CCC2)c2c1OC1COC[C@H]1CNc1nc(ncc1C(F)(F)F)N2 (single isomer, unassigned) [Ex-2.82, (11aR,14aS) or (11aS,14aR)-3-cyclobutyl-1-methyl-8-(trifluoromethyl)-3,4,10,11,11a,12,14,14a-octahydro-5,9-(azeno)furo[3,4-1]pyrazolo[4,3-b][1]oxa[4,6,10]triazacyclotridecine] | 9.60 |
| Cn1nc(C(F)(F)F)c2c1Nc1ncc(Cl)c(n1)N[C@@H]1COC[C@H]1CO2 [Ex-2.75, (10aS,13aS)-8-chloro-3-methyl-1-(trifluoromethyl)-3,4,10a,11,13a,14-hexahydro-10H,13H-5,9-(azeno)furo[3,4-k]pyrazolo[4,3-b][1]oxa[4,6,10]triazacyclotridecine] | 9.50 |
| FC(F)(F)c1cnc2nc1N[C@@H]1COC[C@H]1COc1ncccc1N2 [Ex-15.6, (11aS,14aS)-9-(trifluoromethyl)-11a,12,14a,15-tetrahydro-5H,11H,14H6,10-(azeno)furo[3,4-k]pyrido[2,3-b][1]oxa[4,6,10]triazacyclotridecine] | 9.08 |
| Cc1nn(C2CCC2)c2c1OC[C@@H]1CC[C@H]1Nc1cc(ncc1F)N2 [Ex-13.7, (10aR,12aR)-3-cyclobutyl-8-fluoro-1-methyl-3,4,10,10a,11,12,12a,13-octahydro-5,9-(metheno)cyclobuta[k]pyrazolo[4,3-b][1]oxa[4,6,10]triazacyclotridecine] | 5.02 |
| Cc1cnc2c(c1)Nc1ncc(C(F)(F)F)c(n1)N[C@@H]1COC[C@H]1CO2 [Ex-15.3, (11aS,14aS)-3-methyl-9-(trifluoromethyl)-11a,12,14a,15-tetrahydro-5H,11H,14H6,10-(azeno)furo[3,4-k]pyrido[2,3-b][1]oxa[4,6,10]triazacyclotridecine] | 9.15 |

Same assay, conditions: G2019S LRRK2, 134 μM ATP (Km ATP), LRRKtide substrate; read-out: LRRK2 pIC50 (converted)

| Compound | IC50 [nM] |
| --- | --- |
| Cc1nn(C2CCC2)c2c1CC[C@@H]1COC[C@H]1Nc1nc(ncc1C(F)(F)F)N2 (single isomer, unassigned) [Ex-12.2, (10aS,13aS)- or (10aR,13aR)-3-Cyclobutyl-1-methyl-8-(trifluoromethyl)-3,4,10a,11,13,13a,14,15-octahydro-10H-5,9-(azeno)furo[3,4-h]pyrazolo[4,3-l][1,3,7]triazacyclotridecine] | 0.24 |
